Measured values taken from patent US20120022122A1, “TREATMENT AND PREVENTION OF DELETERIOUS EFFECTS ASSOCIATED WITH ALCOHOL CONSUMPTION” (priority 2008, published 2012).
Read-outs that look alike come from different tables or passages of the source.

How the values were obtained:
[1] = system: alcohol-induced flush reaction; conditions: for effects/effectiveness compared to no treatment or comparator: cimetidine 300 mg vs famotidine 10 mg vs no treatment; for effectiveness as preventative treatment against symptoms of alcohol-induced flush reaction (summary of the studies): famotidine at low dose, cimetidine at a higher dose; for undesired side-effects (drowsiness, sedation): famotidine 10 mg oral chewable tablet, with alcohol;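 as to all read-outs here: human subjects with alcohol-induced flushing observed over social drinking occasions, with each subject also tested untreated as the control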
[2] = cited from earlier work
[3] = system: alcohol flush reaction and hangover; conditions: previous studies with famotidine alone
[4] = Patient one, oral 45 min before drinking: cimetidine 300 mg (2 beverages, about 2 h) or famotidine 10 mg (2 oz tequila and 5 glasses beer, more than 6 h)
[5] = Patient three, oral 45 min before drinking: cimetidine 300 mg (2 beverages, about 3 h) or famotidine 10 mg (cocktails, about 4 h)
[6] = Subject 2, with alcohol, oral 45 min before drinking: cimetidine 300 mg or famotidine 10 mg
[7] = Subject 4, with alcohol, oral 45 min before drinking: cimetidine 300 mg or famotidine 10 mg
[8] = Subject 1, with alcohol, oral 45 min before drinking: loratidine 20 mg or famotidine 10 mg
[9] = Subject 3, with alcohol, oral 45 min before drinking: loratidine 20 mg or famotidine 10 mg
[10] = Subject 5, with alcohol, oral 45 min before drinking: loratidine 20 mg or famotidine 10 mg

CN/C(=N/CCSCc1nc[nH]c1C)NC#N [Cimetidine]
effects/effectiveness compared to no treatment or comparator ([1]; Patient one): slightly less aggressive | flushing reaction after drinking alcohol [1, 4]: still experienced a facial flushing reaction, increased heart rate, as well as a headache | effects/effectiveness compared to no treatment or comparator ([1]; Patient three): slightly less aggressive | flushing reaction after drinking alcohol [1, 5]: still experienced a facial flushing reaction and an increased heart rate | Heart rate [1, 6]: 97 | Temp (F.) [1, 6]: 98.0 F. | Heart rate [1, 7]: 87 | Temp (F.) [1, 7]: 97.1 F. | effectiveness as preventative treatment against symptoms of alcohol-induced flush reaction (summary of the studies) [1]: minimally effective

NC(N)=Nc1nc(CSCCC(N)=NS(N)(=O)=O)cs1 [Famotidine]
solubility ([2]; in ethanol): practically insoluble | solubility ([2]; in glacial acetic acid): freely soluble | solubility ([2]; in methanol): slightly soluble | solubility ([2]; in water): very slightly soluble | redness while imbibing in alcohol ([1]; 10 mg of famotidine): significantly prevents redness | undesired side-effects (drowsiness, sedation) ([1]; Patient five): no undesired side-effects whatsoever | period after which the protective effect (flushing blockade) dissipated ([1]; Patient five, famotidine 10 mg oral, continued drinking beyond six drinks and more than six hours): about five | flushing reaction after drinking alcohol ([1]; Patient five, oral 45 min before drinking: loratadine 20 mg (1 beverage, 1 h) or famotidine 10 mg (5 beverages, about 5 h)): neither a facial flushing reaction nor any nasal congestion | undesired side-effects (drowsiness, sedation) ([1]; Patient four): no undesired side-effects whatsoever | flushing reaction after drinking alcohol ([1]; Patient four, oral 45 min before drinking: loratadine 20 mg (3 beverages, 3-4 h) or famotidine 10 mg (multiple glasses of wine, 4 h)): no flushing reactions of the face or of the torso | effects/effectiveness compared to no treatment or comparator ([1]; Patient one): much more effective than cimetidine | undesired side-effects (drowsiness, sedation) ([1]; Patient one): no undesired side-effects whatsoever | flushing reaction after drinking alcohol [1, 4]: no facial flushing reaction | effects/effectiveness compared to no treatment or comparator ([1]; Patient three): much more effective than cimetidine or no treatment | undesired side-effects (drowsiness, sedation) ([1]; Patient three): no undesired side-effects whatsoever | flushing reaction after drinking alcohol [1, 5]: no flushing reactions of the face | undesired side-effects (drowsiness, sedation) ([1]; Patient two): no undesired side-effects whatsoever | flushing reaction after drinking alcohol ([1]; Patient two, oral 45 min before drinking: loratadine 20 mg (3 beverages, 3-4 h) or famotidine 10 mg (2-3 glasses Vodka, several hours)): no flushing reactions, either of the face or of the torso | Heart rate [1, 8]: 77 | Temp (F.) [1, 8]: 97.3 F. | Heart rate [1, 6]: 82 | Temp (F.) [1, 6]: 98.2 F. | Heart rate [1, 9]: 84 | Temp (F.) [1, 9]: 97.4 F. | Heart rate [1, 7]: 78 | Temp (F.) [1, 7]: 97.1 F. | Heart rate [1, 10]: 83 | Temp (F.) [1, 10]: 97.3 F. | effectiveness as preventative treatment against symptoms of alcohol-induced flush reaction (summary of the studies) [1]: highly effective | symptoms associated with hangover [3]: did not appear to significantly reduce or eliminate symptoms associated with hangover
